{"source": "patent US20220264883A1", "about": "“IMIDAZOTHIAZOLE COMPOUNDS AND METHODS FOR TREATING PLANT NEMATODE INFECTIONS” (The Governing Council of the University of Toronto, priority 2019, published 2022)", "key": {"M. chitwoodi [1]": {"tested_on": "M. chitwoodi", "assay": "Root-knot nematode M. chitwoodi mobility (Table 3)", "format": "in vivo, Meloidogyne chitwoodi", "conditions": "45 μM, 2 days of chronic exposure", "method": "(§1) M. incognita (Kofoid & White) Chitwood Race 1 (originally isolated in Maryland) was used for all experiments, and was maintained on pepper (Capsicum annuum L.) cv. PA-136 in a greenhouse as previously described^64. Infective J2 juveniles were collected as described in ref.65. The microwell dose-response experiments were carried out similarly to previously described protocols^64, 66. In brief, 100 J2s, in 10 μL of deionized water, were added to the wells of 96-well polystyrene plates, after which 190 μL of deionized water containing dissolved chemical, or DMSO alone, was added to each well. The chemicals were tested at 45 μM, and the final concentration of DMSO in each well was 0.5% (v/v). The wells were covered with a plastic adhesive strip, and the lids of the plates were sealed with parafilm. The plates were incubated at 25° C. The mobile fraction of worms was quantified by counting the number of mobile and immobile worms after 2 days of incubation, and then dividing the number of mobile worms by the total number of worms in the well. Three technical replicates were performed for each treatment, and an average value for the mobile fraction of worms was calculated across the three replicates. The percent effectiveness at inhibiting nematode movement was calculated by dividing the average value for the chemical treatment by the average value for the DMSO control, then subtracting this value from 1, and then multiplying by 100.\nM. chitwoodi race 1 (the strain commonly found in the pacific northwest of the United States) was used for all experiments, and was maintained on tomato plants (Solanum lycopersicum ‘Rutgers’) as previously described^73. The M. chitwoodi in vitro assays were performed identically to the M. incognita in vitro assays (see above).\n(§2) The ability of exemplary compounds of the application to kill C. elegans at 100 μM (except for compound If which was tested at 50 μM) and to affect the mobility of M. chitwoodi at 45 μM was tested as described above for M. incognita infective juveniles. Percent mobility was measured after 2 days of chronic exposure to test compounds (Table 3)."}, "M. chitwoodi [2]": {"tested_on": "M. chitwoodi", "assay": "Meloidogyne chitwoodi infectivity assays (tomato roots in soil)", "format": "in vivo", "conditions": "45 μM in soil, 8 weeks, egg counts relative to DMSO control", "method": "An M. incognita population originally collected from grape (Vitis vinifera) in Parlier, Calif., was used for all experiments, and they were maintained on tomato plants (Solanum lycopersicum ‘Rutgers’) as previously described^73. Infective J2 juveniles were collected as described in^73. For the infectivity assays, 90 grams of soil (1:1 sand:loam mix) was added to each cell of several 6-cell plastic garden packs. The soil was drenched with 18 mL of deionized water containing dissolved chemical or DMSO alone. 2,500 infective J2 juveniles were then added to the soil in 2 mL of deionized water, for a total water volume of 20 mL. The final concentration of the chemicals in water was 45 μM. The DMSO concentration varied from 0.1% to 0.8% (v/v) depending on the stock concentration of the chemical. The highest DMSO concentration was used as the DMSO control. The J2s were incubated in the soil and chemical for 24 hours, after which two- to three-week old tomato seedlings were transplanted into the soil (one plant per cell). […] The number of eggs from each plant root was counted on a dissection microscope using a haemocytometer, and the number of eggs per milligram of root was calculated by dividing the total egg number by the mass of the dried root material. […] An average percent effectiveness value was then calculated across the two different batches carried out on different days. […]"}, "tomato plants": {"tested_on": "tomato plants", "assay": "Root mass of tomato plants in the infectivity assays", "format": "in vivo, Solanum lycopersicum", "conditions": "45 μM", "method": "An M. incognita population originally collected from grape (Vitis vinifera) in Parlier, Calif., was used for all experiments, and they were maintained on tomato plants (Solanum lycopersicum ‘Rutgers’) as previously described^73. Infective J2 juveniles were collected as described in^73. For the infectivity assays, 90 grams of soil (1:1 sand:loam mix) was added to each cell of several 6-cell plastic garden packs. The soil was drenched with 18 mL of deionized water containing dissolved chemical or DMSO alone. 2,500 infective J2 juveniles were then added to the soil in 2 mL of deionized water, for a total water volume of 20 mL. The final concentration of the chemicals in water was 45 μM. The DMSO concentration varied from 0.1% to 0.8% (v/v) depending on the stock concentration of the chemical. The highest DMSO concentration was used as the DMSO control. The J2s were incubated in the soil and chemical for 24 hours, after which two- to three-week old tomato seedlings were transplanted into the soil (one plant per cell). Two replicates were performed for each chemical treatment, and four replicates were done for the DMSO controls. The whole experiment was replicated twice, in two different batches on two different days, for a total of four replicates for each chemical treatment, and eight replicates for the DMSO controls. Inoculated plants were grown for 8 weeks in a greenhouse, as described^73, under long-day conditions (16-h photoperiod) with 26/18° C. day/night temperatures. After 8 weeks, the plants were destructively harvested. The tops were removed and discarded, and roots were gently washed with water to remove adhering soil. Eggs were extracted by placing rinsed roots in 0.6% sodium hypochlorite and agitating at 300 rpm for 3 min. Roots were then rinsed over nested 250- and 25.4-μm sieves, with eggs collected from the latter and suspended in water. Roots were dried in a 65° C. oven for at least 24 hours, after which dry roots were weighed. The number of eggs from each plant root was counted on a dissection microscope using a haemocytometer, and the number of eggs per milligram of root was calculated by dividing the total egg number by the mass of the dried root material. An average was taken across the replicates performed on the same day, and then normalized to the DMSO control average. To calculate percent effectiveness at inhibiting reproduction, the normalized values were subtracted from 1, and then multiplied by 100. An average percent effectiveness value was then calculated across the two different batches carried out on different days."}, "C. elegans [3]": {"tested_on": "C. elegans", "assay": "C. elegans minimum lethal concentration dose-response", "format": "in vivo, Caenorhabditis elegans", "conditions": "Caenorhabditis elegans, C. elegans viability", "method": "(§3) Forty microliters of an HB101 bacterial suspension in liquid NGM (see above) was added to each well of a 96-well flat-bottom culture plate, after which approximately 25 synchronized L1 worms, in 10 μl of M9 buffer (see ref. 59 for the recipe), were added to each well. The synchronized L1 worms were obtained from an embryo preparation performed the previous day (see ref. 59 for the protocol). For the L1 assays, 0.5 μl of chemical solution (or DMSO alone) was immediately added to the wells using a multichannel pipette, the final DMSO concentration is 1% (v/v). The worms were incubated for 3 days at 20° C. and the number of viable animals was counted. […] Although the counts were performed after 3 days of incubation in the chemical, it was noted that the L1s were dead within 24 hours of the addition of the chemicals. For the L2/L3 assays, the worms were incubated in the absence of chemical for 1 day at 20° C. until they reached the L2/L3 stage, at which point chemical was added as described above. The worms were then allowed to incubate for 2 days at 20° C. and the number of viable animals was counted as described for the L1 assay. For the L4 assays, the worms were incubated for 2 days at 20° C. before the addition of chemicals. The L4-stage worms were then incubated in chemical for an additional day before quantifying the number of viable animals. The adult assays were performed the same way as the L4 assays, however HT115 E. coli carrying the empty dsRNA expressing vector L4440 was used in place of HB101 and the worms were cultured at 25° C. as opposed to 20° C. for the entirety of the experiment. The HT115 suspension was made by concentrating a bacterial culture, with an OD600 of ˜ 0.8, five-fold with liquid NGM containing 1 mM IPTG and 100 μg/ml carbenicillin. The HT115 cells were induced with 1 mM IPTG for one hour before concentrating with NGM.\nCompounds Ia to Im, dose-response assays were performed with C. elegans. 8 of the compounds killed C. elegans with minimum lethal concentrations less than or equal to 100 μM (Table 6). Compounds Ia, Ic, and Ij were the most potently lethal nematicides in this assay, having minimum lethal concentrations of 6.25 μM and below. The positive control nematicide tioxazafen killed nematodes at 3.13 μM and above."}, "C. elegans [4]": {"tested_on": "C. elegans", "assay": "C. elegans viability at a single concentration (Table 3)", "format": "in vivo", "conditions": "Caenorhabditis elegans; 50 μM (compound If)", "method": "as §3, §2"}, "M. incognita J2 larvae": {"tested_on": "M. incognita J2 larvae", "assay": "Meloidogyne incognita in vitro assays (J2 movement)", "format": "in vivo", "conditions": "45 μM, 2 days, relative to DMSO control", "method": "as §1"}}, "note": "Several values for one entry are separate records, joined by “and”; a condition that tells them apart may be missing. Equal entries are not always repeated."}
{"smiles": "Cc1csc2nc(-c3ccc(Cl)cc3)cn12", "note": "[Compound If]", "values": [{"measurement": "RKN mobility", "setting": "M. chitwoodi [1]", "value": 0.6, "unit": "%"}, {"measurement": "% effectiveness at inhibiting reproduction of M. chitwoodi", "setting": "M. chitwoodi [2]", "value": 46.2, "unit": "%"}, {"measurement": "Normalized root mass (relative to DMSO control)", "setting": "tomato plants", "value": 1.3}, {"measurement": "minimal effective concentration", "setting": "C. elegans [3]", "value": "25 µM and 6.2 µg/mL"}, {"measurement": "viability at 50 µM", "setting": "C. elegans [4]", "value": 19.8, "unit": "%"}, {"measurement": "% effectiveness at reducing M. incognita movement", "setting": "M. incognita J2 larvae", "value": 3.5, "unit": "%"}]}
